The structures appear in SMILES notation. Where only a bound is given, the exact number is not on record here.

The first assay concerns PKMYT1 (CDK1 pThr14) in FUOV1 cells. The experiment in a line: PKMYT1 cell-based activity assay, CDK1 pThr14 AlphaLISA in FUOV1 cells. The conditions noted are these: 2 h, 2 h compound incubation, read-out: FUOV-1 CDK1 pThr14 IC50. On the procedure: To determine compound IC50 (PKMYT1 cell-based activity assay, CDK1 pThr14 AlphaLISA), FUOV1 cells were plated into a 96-well TC-treated culture plate at 50000 cells/well in a final volume of 100 μL of media. The plates were then allowed to equilibrate in a biological safety cabinet for 30 minutes before being placed in a humidified incubator at 37 C and 5% CO2 overnight. The next day, 2 μL of PKMYT1 inhibitors or DMSO were diluted in 400 μL of warmed culture media in a 96-well block using a Biomek FX liquid handler. Compounds were mixed in media and then 25 μL was dispensed into each well of the 96-well cell plate. Plates were centrifuged at 300 g for 10 seconds and then placed in the incubator for 2 hours. After the 2-hour incubation with compound, media was removed via aspiration using a multichannel pipette. 30 μL of 1× AlphaLISA lysis buffer (Perkin Elmer) supplemented with protease and phosphatase inhibitors as well as 1 mM PMSF, was added to each well. Plates were rotated at 500 g for 20 minutes to facilitate lysis. Plates were then sealed with aluminum foil and frozen at −80° C. for at least 1 hour. Lysates were thawed at 37° C. for 10 minutes, then 10 μL of each lysate was transferred in duplicate to a white 384-well assay plate. Antibody mixture was prepared in 1× AlphaLISA assay buffer (Perkin Elmer) containing antibodies (5 nM final concentration for rabbit pThr14-CDK1 from Abcam #ab58509 and mouse total CDK1 from ThermoFisher Scientific #33-1800). 5 μL of antibody mixture was added to each well of the assay plate. The assay plate was sealed and stored at 4° C. overnight. The next day, AlphaLISA bead mixture (Perkin Elmer) was prepared in 1× AlphaLISA assay buffer. Anti-rabbit IgG Acceptor (Perkin Elmer #AL104C) and anti-mouse IgG Donor beads (Perkin Elmer #AS104D) were prepared to a concentration of 80 μg/ml in assay buffer. 5 μL of bead mixture was added to each well of the assay plate (20 μg/ml final concentration for each bead). The plate was protected from light and incubated for 2 hours at room temperature. After a 2-hour incubation with beads, the plate was read using the Perkin Elmer EnVision Multimode plate reader with excitation at 680 nm and emission at 615 nm.
(In general: Alpha assays give light when donor and acceptor beads are brought close together.)
A word on the IC50: it is the midpoint of a concentration-inhibition curve. In the case of `Cc1ccc2[nH]ncc2c1-c1nc(-c2cc(F)c(F)cc2NC2CNC2)nc(C(N)=O)c1N` [Compound 486], the IC50 worked out at 0.114 µM.

For `Cc1ccc2[nH]ncc2c1-c1nc(-c2cc(F)c(F)cc2NC(=O)C(C)(C)C)nc(C(N)=O)c1N` [Compound 487], the IC50 turned out to be 0.068 µM.

For the compound `Cc1ccc2[nH]ncc2c1-c1nc(-c2cc(F)c(F)cc2NC2CCCC2(C)C)nc(C(N)=O)c1N` (stereo not shown) [Compound 488], the IC50 is 0.861 µM.

`Cc1ccc2[nH]ncc2c1-c1nc(-c2cc(F)ccc2Nc2cccnn2)nc(C(N)=O)c1N` [Compound 489]: the IC50 turned out to be 0.022 µM.

Regarding `Cc1ccc2[nH]ncc2c1-c1nc(-c2cc(F)ccc2Nc2cnccn2)nc(C(N)=O)c1N` [Compound 490], the IC50 was found to be 0.051 µM.

On to `Cc1ccc2[nH]ncc2c1-c1nc(-c2cc(F)ccc2NS(C)(=O)=O)nc(C(N)=O)c1N` [Compound 491], for which the IC50 was found to be 0.045 µM.

Turning to `Cc1ccc2[nH]ncc2c1-c1nc(-c2cc(F)ccc2Nc2ncc(F)cn2)nc(C(N)=O)c1N` [Compound 492], the IC50 was 0.163 µM.

Turning to `Cc1ccc2[nH]ncc2c1-c1nc(-c2cc(F)ccc2NS(=O)(=O)C(F)F)nc(C(N)=O)c1N` [Compound 493], the half-inhibitory concentration (IC50) was 0.681 µM.

For `Cc1ccc2[nH]ncc2c1-c1nc(-c2ccccc2Nc2ncc(F)cn2)nc(C(N)=O)c1N` [Compound 494], the IC50 amounted to 0.144 µM.

On to `Cc1ccc2[nH]ncc2c1-c1nc(-c2ccncc2NC(=O)OC(C)(C)C)nc(C(N)=O)c1N` [Compound 495], for which the IC50 was 0.198 µM.

Regarding `Cc1ccc2[nH]ncc2c1-c1nc(-c2cc(F)c(F)cc2NCc2cccnc2)nc(C(N)=O)c1N` [Compound 496], the IC50 was found to be 0.465 µM.

Regarding `Cc1ccc2[nH]ncc2c1-c1nc(-c2cc(F)c(F)cc2NC2COC2)nc(C(N)=O)c1N` [Compound 497], the IC50 was 0.052 µM.

`Cc1ccc2[nH]ncc2c1-c1nc(-c2cccnc2Nc2nc(F)ccc2F)nc(C(N)=O)c1F` [Compound 500, 2-(2-((3,6-difluoropyridin-2-yl)amino)pyridin-3-yl)-5-fluoro-6-(5-methyl-1H-indazol-4-yl)pyrimidine-4-carboxamide]: the IC50 is 0.437 µM.

For the compound `Cc1ccc2[nH]ncc2c1-c1nc(-c2cc(F)c(F)cc2NCC(N)CO)nc(C(N)=O)c1N` (stereo not shown) [Compound 501], the IC50 is 0.146 µM.

Turning to `Cc1ccc2[nH]ncc2c1-c1nc(-c2cc(F)c(F)cc2NC2CC(C)(C)NC(C)(C)C2)nc(C(N)=O)c1N` [Compound 502], the half-inhibitory concentration (IC50) amounted to 0.871 µM.

Take `Cc1ccc2[nH]ncc2c1-c1nc(-c2cc(F)c(F)cc2NCC2(C)COC2)nc(C(N)=O)c1N` [Compound 503]: the IC50 was 0.023 µM.

Regarding `Cc1ccc2[nH]ncc2c1-c1nc(-c2cc(F)cnc2NCC(F)F)nc(C(N)=O)c1N` [Compound 504], the IC50 stood at 0.031 µM.

Regarding `Cc1ccc2[nH]ncc2c1-c1nc(-c2cc(F)ccc2NC(=O)C2(C)CCOCC2)nc(C(N)=O)c1N` [Compound 505], the IC50 turned out to be 0.036 µM.

As for `Cc1ccc2[nH]ncc2c1-c1nc(-c2cc(F)ccc2Nc2ncc(C#N)s2)nc(C(N)=O)c1N` [Compound 506], the IC50 was 0.236 µM.

With `Cc1ccc2[nH]ncc2c1-c1nc(-c2ccncc2NC(=O)C(C)(C)C)cc(C(N)=O)c1N` [Compound 507, 5-amino-6-(5-methyl-1H-indazol-4-yl)-3′-pivalamido-[2,4′-bipyridine]-4-carboxamide], the IC50 worked out at 0.166 µM.

For the compound `COCC(COC)Nc1cc(F)c(F)cc1-c1nc(C(N)=O)c(N)c(-c2c(C)ccc3[nH]ncc23)n1` [Compound 508], the IC50 was determined as 0.622 µM.

In the case of `Cc1c(F)cc2[nH]ncc2c1-c1nc(-c2cc(F)c(F)cc2NC(=O)C2(C(F)(F)F)CC2)nc(C(N)=O)c1N` [Compound 509], the IC50 stood at 0.285 µM.

As for `Cc1ccc2[nH]ncc2c1-c1nc(-c2cc(F)ccc2Nc2ncc(Cl)s2)nc(C(N)=O)c1N` [Compound 510], the IC50 was determined as 0.871 µM.

For the compound `Cc1ccc2[nH]ncc2c1-c1nc(-c2ccc(F)cc2Nc2ncccn2)nc(C(N)=O)c1N` [Compound 511], the concentration for half-maximal inhibition (IC50) stood at 0.025 µM.

Turning to `Cc1ccc2[nH]ncc2c1-c1nc(-c2ccc(F)cc2NS(C)(=O)=O)nc(C(N)=O)c1N` [Compound 512], the IC50 is 0.052 µM.

Turning to `Cc1ccc2[nH]ncc2c1-c1nc(-c2ccc(F)cc2Nc2ccncn2)nc(C(N)=O)c1N` [Compound 513], the IC50 stood at 0.016 µM.

On to `Cc1ccc2[nH]ncc2c1-c1nc(-c2cc(F)ccc2NS(=O)(=O)C2CC(F)(F)C2)nc(C(N)=O)c1N` [Compound 514], for which the IC50 turned out to be 1.34 µM.

Turning to `Cc1ccc2[nH]ncc2c1-c1nc(-c2ccc(F)cc2Nc2cccnn2)nc(C(N)=O)c1N` [Compound 515], the IC50 was determined as 0.011 µM.

Consider `Cc1ccc2[nH]ncc2c1-c1nc(-c2ccc(F)cc2Nc2ccccn2)nc(C(N)=O)c1N` [Compound 516], for which the IC50 was determined as 0.03 µM.

Turning to `Cc1ccc2[nH]ncc2c1-c1nc(-c2cc(F)c(F)cc2NCC2(C#N)CC2)nc(C(N)=O)c1N` [Compound 517], the IC50 worked out at 0.139 µM.

`Cc1ccc2[nH]ncc2c1-c1nc(-c2cccnc2NCC(F)(F)F)nc(C(N)=O)c1N` [Compound 518, 5-amino-6-(5-methyl-1H-indazol-4-yl)-2-(2-((2,2,2-trifluoroethyl)amino)pyridin-3-yl)pyrimidine-4-carboxamide]: the IC50 came to 0.018 µM.

As to `Cc1ccc2[nH]ncc2c1-c1nc(-c2cc(F)ccc2Nc2cccnc2)nc(C(N)=O)c1N` [Compound 519, 5-amino-2-(5-fluoro-2-(pyridin-3-ylamino)phenyl)-6-(5-methyl-1H-indazol-4-yl)pyrimidine-4-carboxamide], the IC50 was found to be 0.059 µM.

`Cc1ccc2[nH]ncc2c1-c1nc(-c2cnccc2NCC(F)(F)F)nc(C(N)=O)c1N` [Compound 520, 5-amino-6-(5-methyl-1H-indazol-4-yl)-2-(4-((2,2,2-trifluoroethyl)amino)pyridin-3-yl)pyrimidine-4-carboxamide]: the concentration for half-maximal inhibition (IC50) came out at 0.027 µM.

On to `Cc1ccc2[nH]ncc2c1-c1nc(-c2cc(F)ccc2Nc2cnn(C)c2)nc(C(N)=O)c1N` [Compound 521], for which the IC50 turned out to be 0.582 µM.

For the compound `Cc1ccc2[nH]ncc2c1-c1nc(-c2cc(F)ccc2Nc2ccnn2C)nc(C(N)=O)c1N` [Compound 522], the IC50 was found to be 0.101 µM.

On to `Cc1cnc(Nc2cc(F)ccc2-c2nc(C(N)=O)c(N)c(-c3c(C)ccc4[nH]ncc34)n2)nc1` [Compound 523], for which the IC50 came to 0.269 µM.

On to `Cc1cc(Nc2cc(F)ccc2-c2nc(C(N)=O)c(N)c(-c3c(C)ccc4[nH]ncc34)n2)ncn1` [Compound 524], for which the IC50 turned out to be 0.069 µM.

For the compound `Cc1ccc2[nH]ncc2c1-c1nc(-c2ccc(F)cc2Nc2ncncc2F)nc(C(N)=O)c1N` [Compound 526], the concentration for half-maximal inhibition (IC50) is 0.004 µM.

Still in this assay, the particulars now being: 2 h, 2 h incubation, read-out: FUOV-1 CDK1 pThr14 IC50.
On to `[2H]C([2H])([2H])c1ccc2[nH]ncc2c1-c1nc(-c2ccc(C3CC3)nc2Nc2ncccc2F)nc(C(N)=O)c1N` [Compound 47], for which the IC50 amounted to 0.013 µM.

Take `COc1cc(-c2nc(C(N)=O)c(N)c(-c3c(C)ccc4[nH]ncc34)n2)ccn1` [Compound 135]: the IC50 is 1.15 µM.

Consider `Cc1ccc2[nH]ncc2c1-c1cc(-c2ccnc(OCc3ccco3)n2)nc(C(N)=O)c1N` [Compound 213], for which the IC50 was 0.404 µM.

In the case of `CC(=O)N1CCN(c2nccc(-c3cc(-c4c(C)ccc5[nH]ncc45)c(N)c(C(N)=O)n3)n2)CC1` [Compound 215], the IC50 was found to be 0.399 µM.

`COC(COc1nccc(-c2cc(-c3c(C)ccc4[nH]ncc34)c(N)c(C(N)=O)n2)n1)c1ccccc1` (stereo not shown) [Compound 238]: the IC50 was 0.092 µM.

In the case of `Cc1ccc2[nH]ncc2c1-c1cc(-c2ccnc(OCc3nccn3C)n2)nc(C(N)=O)c1N` [Compound 301], the IC50 is 0.039 µM.

With `Cc1ccc2[nH]ncc2c1-c1nc(-c2cccnc2Nc2nc(F)ccc2F)nc(C(N)=O)c1Cl` [Compound 314, 5-chloro-2-[2-[(3,6-difluoro-2-pyridyl)amino]-3-pyridyl]-6-(5-methyl-1H-indazol-4-yl)pyrimidine-4-carboxamide], the IC50 was 1.62 µM.

As to `Cc1ccc2[nH]ncc2c1-c1cc(-c2ccnc(OCC3(C#N)CC3)n2)nc(C(N)=O)c1N` [Compound 324], the IC50 was found to be 0.303 µM.

The assay is the same for the next values; noted with them: 2 h compound incubation, read-out: FUOV-1 CDK1 pThr14 IC50.
As to `Cc1ccc2[nH]ncc2c1-c1cc2c(oc3ccc(NC4CCOCC4)nc32)c(C(N)=O)c1N` (atropisomer, axis not shown) [Compound 762], the half-maximal inhibitory concentration (IC50) was 0.024 µM.

Still in this assay, the particulars now being: 2 h incubation, read-out: FUOV-1 CDK1 pThr14 IC50.
For the compound `Cc1ccc(O)c(C)c1-c1nc(-c2ccnnc2)cc(C(N)=O)c1N` [Compound 77], the IC50 amounted to 0.179 µM.

In the case of `Cc1ccc2[nH]ncc2c1-c1cc(-c2ccnc(OCC(F)(F)F)n2)nc(C(N)=O)c1N` [Compound 165], the IC50 was over 10 µM.
